Reference: paper PMC6085299 (Nature Communications, 2018)

What was measured:
[1] = biological target: T1, Pin1 (Homo sapiens, UniProt Q13526); assay: biotin-ATO pulldown with immunoblot, dose-dependent, competed by ATO; format: binding
T1 construct: recombinant Pin1

[2] = biological target: Pin1 (Homo sapiens, UniProt Q13526, M130I); assay: PPIase assay (Supplementary Fig. 2e); format: biochemical

**Q.** Which Kd [1] does the source give for biotin-ATO here?
**A.** 238 nM

**Q.** Which “PPIase assay (Supplementary Fig. 2e)” value [2] does the source give for O=[As]O[As]=O (centres unmarked) [ATO, Arsenic trioxide] here?
**A.** ATO dose-dependently inhibited the PPIase activity of Pin1 M130I, but not Pin1 M130V mutant
